Tests used:
[1] = Clinical trial in post-ACS subjects: MACE occurrence in diabetic subpopulation; details: cumulative at 16 weeks
Method: 625 adult (18 years of age or older) human subjects who had recently experienced an index ACS event (UA, NSTEMI, or STEMI) were randomized to receive placebo or A-002 at 500 mg once daily via oral administration in a double-blinded manner. A-002 was delivered in the form of two 250 mg tablets. In addition, all subjects received atorvastatin at 80 mg once daily via oral administration of a single tablet.
Subjects were excluded if they were receiving statin therapy at maximum recommended or tolerated dosage (i.e., 40-80 mg QD for atorvastatin, fluvastatin, lovastatin, pravastatin, or simvastatin, or 20-40 mg QD rosuvastatin) at the time of the index ACS event. During the trial, subjects were prevented from using any lipid-lowering therapy other than 80 mg atorvastatin and/or A-002.
For purposes of this study, MACEs included all-cause mortality, non-fatal MI, documented UA requiring urgent hospitalization, revascularization occurring 60 days or more after the initial index ACS event, and non-fatal stroke. Subjects were evaluated at various timepoints after randomization and at study completion. Each evaluation included measurement of serum LDL levels and recordation of any MACEs or less severe adverse events occurring since the previous evaluation. In addition, certain evaluation periods included measurement of one or more of hs-CRP, sPLA2, IL-6, and/or other biomarker levels, vital signs, weight, and/or waist circumference. […] This final evaluation included at least a complete physical examination, a 12-lead ECG reading, measurement of LDL, hs-CRP, sPLA2, and IL-6 levels, and recordation of any MACEs during the study period.

[2] = 80 mg atorvastatin; subjects that had recently experienced an ACS event; cited from earlier work
[3] = Clinical trial in post-ACS subjects: MACE occurrence in ITT population; format: in vivo, human; details: at 16 weeks
Method: A-002 was delivered in the form of two 250 mg tablets. In addition, all subjects received atorvastatin at 80 mg once daily via oral administration of a single tablet.
Subjects were randomized within 96 hours of hospital admission for an index ACS event, or within 96 hours of index ACS event diagnosis if already hospitalized. Prior to randomization, subjects were screened for pertinent medical history, and baseline levels of LDL and hs-CRP were measured. Baseline sPLA2 levels were also measured in a random subset of subjects. Percutaneous revascularization, if required or planned for a particular subject, was performed prior to randomization.
Subjects were excluded if they were receiving statin therapy at maximum recommended or tolerated dosage (i.e., 40-80 mg QD for atorvastatin, fluvastatin, lovastatin, pravastatin, or simvastatin, or 20-40 mg QD rosuvastatin) at the time of the index ACS event. […]
For purposes of this study, MACEs included all-cause mortality, non-fatal MI, documented UA requiring urgent hospitalization, revascularization occurring 60 days or more after the initial index ACS event, and non-fatal stroke. […] This final evaluation included at least a complete physical examination, a 12-lead ECG reading, measurement of LDL, hs-CRP, sPLA2, and IL-6 levels, and recordation of any MACEs during the study period.

[4] = in vivo; cited from earlier work
[5] = cited from earlier work

In the case of CC(C)c1c(C(=O)Nc2ccccc2)c(-c2ccccc2)c(-c2ccc(F)cc2)n1CC[C@@H](O)C[C@@H](O)CC(=O)O [Placebo (atorvastatin only), atorvastatin], the “Death, % of subjects” value [1] is reported as 3.4%, the “Death, number of subjects” value [1] is reported as 3 and the “MI, % of subjects” value [1] is reported as 0.0%. For the same molecule, the “MI, number of subjects” value [1] was 0, the “Revascularization ≧ 60 days, % of subjects” value [1] was 0.0% and the “Revascularization ≧ 60 days, number of subjects” value [1] was 0. For the same molecule, the “Stroke, % of subjects” value [1] was 0.0%, the “Stroke, number of subjects” value [1] was 0 and the “Total MACEs, % of subjects” value [1] was 6.9%. For the same molecule, the “UA requiring hospitalization, % of subjects” value [1] was 3.4%, the “UA requiring hospitalization, number of subjects” value [1] was 3 and the “absolute reduction in death, non-fatal MI, cardiac arrest with resuscitation, or worsening symptomatic myocardial ischemia” value [2] was 2.6%. The “relative reduction in death, non-fatal MI, cardiac arrest with resuscitation, or worsening symptomatic myocardial ischemia” value [2] was 16% and the “% of subjects who experienced a MACE” value [3] was 6.1%.

In the case of CCc1c(C(=O)C(N)=O)c2c(OCC(=O)OC)cccc2n1Cc1ccccc1 [A-002, [[3-(2-Amino-1,2-dioxoethyl)-2-ethyl-1-(phenylmethyl)-1H-indol-4-yl]oxy]acetic acid methyl ester], the “absorption and conversion to active molecule” value [4] is listed as “rapidly absorbed and hydrolyzed to the active A-001 molecule”, the “terminal half-life (t1/2)” value [4] is listed as “approximately ten” and the “effect on total cholesterol, LDL-C, total LDL-C particle, and small LDL-C particle levels” value ([5]; once- or twice-daily administration, stable CVD population, diabetic and high baseline LDL-C subpopulations) is listed as “decreases”. For the same molecule, the “effect on levels of inflammatory markers such as hs-CRP and sPLA2” value ([5]; stable populations) was “decreases”.

From patent publication US20110269786A1, “TREATMENT OF MAJOR ADVERSE CARDIAC EVENTS AND ACUTE CORONARY SYNDROME IN DIABETIC PATIENTS USING SECRETORY PHOSPHOLIPASE A2 (SPLA2) INHIBITOR OR SPLA2 INHIBITOR COMBINATION THERAPIES” (priority 2010, published 2011)
